Source: patent US12668573B2, “Linker, antibody-drug conjugate including same and use thereof” (Zhejiang Yangshengtang Institute of Natural Medication Co., …, priority 2018, dated 2026)
Square brackets hold non-standard residues; d marks the D form. Peptide text beside a SMILES is read from it. * marks the point of attachment. Dolaproine = CO[C@@H]([C@@H]1CCCN1)[C@@H](C)C(=O)O; Dil = CC[C@H](C)[C@H](NC)[C@@H](CC(=O)O)OC; X1 = C[C@@H](N*)[C@@H](O)c1ccccc1; NMeV = CN[C@H](C(=O)O)C(C)C

Experiments:
[1] = Stability of small molecule-linker conjugates in presence of excess free sulfhydryl (Cys), RP-HPLC; type: physicochemical; conditions: PBS with Cys 0.41 mg/mL, pH=7.4, 37° C., 7 days; peak area at t=0 defined as 100%
Procedure: In this example, the small molecule conjugates containing methyl maleate linker (Conjugate-1, Conjugate-2 and Conjugate-3, prepared in Example 9) and small molecule conjugates containing succinimide linker (Conjugate-1′, Conjugate-2′ and Conjugate-3′, prepared in Example 9) were evaluated to determine their stability situations in the presence of excess free sulfhydryl (Cys), in which the monitoring indicators were the changes of the remaining amounts of the small molecule conjugates containing two different linkers in the solution over time. The substances to be tested were each dissolved in DMSO, diluted with 10 times volume of PBS buffer containing cysteine (in which the concentration of Cys was 0.41 mg/mL, pH=7.4) and incubated in a 37° C. incubator; at t=0, another 200 μL of each sample was taken and stored at −80° C. as control. After each solution was incubated for 7 days, samples were taken separately, and RP-HPLC was used to detect the changes of their remaining amounts of substrate over time, in which the peak area of substrate at t=0 was defined as 100%.

[2] = system: BT-474; experiment: In vitro cytotoxicity test (CellTiter Glo, 96 h); type: cell-based, human; conditions: BT-474, HER2-positive breast cancer; ADC DAR about 4
Procedure: (§1) The selected cell lines included antigen HER2-positive breast cancer cell lines BT-474 and HCC1954, antigen HER2-positive ovarian cancer cell line SK-OV-3, antigen HER2-positive gastric cancer cell line NCI-N87, and antigen HER2-weakly positive breast cancer cell line MCF-7, and antigen HER2-negative breast cancer cell line MDA-MB-468 (purchased from ATCC).
a) Vial was gently shaken in a 37° C. water bath to be thawed; b) after all the contents had been thawed, the vial was taken out from the water bath, and disinfected by immersion in or spraying with 70% ethanol; c) the contents of the vial was transferred into a centrifuge tube containing 9 mL of complete medium (DMEM medium was used for cell lines BT-474 and MCF-7; RPMI1640 medium was used for cell lines NCI-N87, HCC1954 and MDA-MB-468; and Mccoy's 5A medium was used for cell line SK-OV-3; the media described below were the same as here), and centrifuged at about 200 xg for 5 minutes; d) the cell pellet was re-suspended in a medium and distributed into a 75 cm^2 culture flask; e) the resulting culture was incubated in a 37° C., 5% CO2 incubator. […]

[3] = system: HCC1954; experiment: In vitro cytotoxicity test (CellTiter Glo, 96 h); type: cell-based; conditions: HCC1954, HER2-positive breast cancer; ADC DAR about 4
Procedure: as §1
(§2) a) Vial was gently shaken in a 37° C. water bath to be thawed; b) after all the contents had been thawed, the vial was taken out from the water bath, and disinfected by immersion in or spraying with 70% ethanol; c) the contents of the vial was transferred into a centrifuge tube containing 9 mL of complete medium (DMEM medium was used for cell lines BT-474 and MCF-7; RPMI1640 medium was used for cell lines NCI-N87, HCC1954 and MDA-MB-468; and Mccoy's 5A medium was used for cell line SK-OV-3; the media described below were the same as here), and centrifuged at about 200 xg for 5 minutes; d) the cell pellet was re-suspended in a medium and distributed into a 75 cm^2 culture flask; e) the resulting culture was incubated in a 37° C., 5% CO2 incubator.
(§3) a) The cells were passaged three times a week at a ratio of 1:4 in a medium containing 10% FBS (heat inactivated) and 1% penicillin/streptomycin solution; b) for the passaged cells, the adherent cells were firstly washed with 0.05% trypsin/EDTA solution (3 mL), then trypsin/EDTA (3 mL) was added and vortexed to coat the cells evenly. The resulting culture was incubated at 37° C. until the cells were detached (observed with microscope to verify that the cells were detached). An equal volume of cell culture medium was added to inactivate trypsin, the detached cells were collected, and centrifuged at 200×g for 5 minutes and then re-suspended in fresh culture medium.

[4] = system: MCF-7; experiment: In vitro cytotoxicity test (CellTiter Glo, 96 h); type: cell-based; conditions: MCF-7, HER2-weakly positive breast cancer; ADC DAR about 4
Procedure: as §1, §2, §3

[5] = system: MDA-MB-468; experiment: In vitro cytotoxicity test (CellTiter Glo, 96 h); type: cell-based; conditions: MDA-MB-468, HER2-negative breast cancer; ADC DAR about 4
Procedure: as §1, §2, §3

[6] = system: NCI-N87; experiment: In vitro cytotoxicity test (CellTiter Glo, 96 h); type: cell-based; conditions: NCI-N87, HER2-positive gastric cancer; ADC DAR about 4
Procedure: as §1, §2, §3

[7] = system: SK-OV-3; experiment: In vitro cytotoxicity test (CellTiter Glo, 96 h); type: cell-based; conditions: Sk-OV-3, HER2-positive ovarian cancer; ADC DAR about 4
Procedure: as §1, §2, §3

| Structure (SMILES) | Remaining amount [1] [%] | other results |
| --- | --- | --- |
| COC(=O)CC(SCc1ccccc1)C(=O)NCCCCCC(=O)Nc1ccccc1 (stereo not drawn) [Conjugate-3] | 93 |  |
| O=C(CCCCCN1C(=O)CC(SCc2ccccc2)C1=O)Nc1ccccc1 (stereo not drawn) [Conjugate-3′] | 49 |  |
| CC[C@H](C)[C@@H]([C@@H](CC(=O)N1CCC[C@H]1[C@H](OC)[C@@H](C)C(=O)N[C@H](C)[C@@H](O)c1ccccc1)OC)N(C)C(=O)[C@@H](NC(=O)[C@@H](NC)C(C)C)C(C)C [MMAE, Monomethyl-auristatin E] (H-[NMeV]V[Dil][Dolaproine]-X1) |  | IC50 [2]: 0.299 nM; IC50 [3]: 0.116 nM; IC50 [4]: 0.223 nM; IC50 [5]: 0.0669 nM; IC50 [6]: 0.161 nM; IC50 [7]: 0.644 nM |

The next lines start with results.

| Remaining amount [1] [%] | Structure (SMILES) | other results |
| --- | --- | --- |
| 53 | CC(=O)N[C@@H](CSC1CC(=O)N(CCCCCC(=O)Nc2ccccc2)C1=O)C(=O)NCc1ccccc1 (stereo partly drawn) [Conjugate-1′] |  |
| 61 | O=C(CCCCCN1C(=O)CC(SCCO)C1=O)Nc1ccccc1 (stereo not drawn) [Conjugate-2′] |  |
| 98 | COC(=O)CC(SCCO)C(=O)NCCCCCC(=O)Nc1ccccc1 (stereo not drawn) [Conjugate-2] |  |
| 96 | COC(=O)CC(SC[C@H](NC(C)=O)C(=O)NCc1ccccc1)C(=O)NCCCCCC(=O)Nc1ccccc1 (stereo partly drawn) [Conjugate-1] |  |
